This note sets out measurements from ChEMBL document CHEMBL6114941, “Recent progress on small molecule TLR4 antagonist against triple-negative breast cancer progression and complications” (2024).

Assay type in all cases: functional
The test system of test [1] is Ehrlich. Kind of test: Antitumor activity against mouse Ehrlich cells implanted in BALB/c nude mouse assessed as increase in apoptotic cell death at 5 mg/kg, ip administered once daily for 7 days relative to control. The settings on record: time 7 day.
The test system of test [2] is MDA-MB-435. The test is described as follows: Antiproliferative activity against human MDA-MB-435 cells assessed as inhibition of cell growth at 10 uM in presence of paclitaxel relative to control.
Test [3] concerns MDA-MB-435. Kind of test: Antiproliferative activity against human MDA-MB-435 cells assessed as inhibition of cell growth at 1 nM relative to control.

For orientation: inhibition means the percentage by which the read-out fell short of the control.

As to `COc1cc(/C=C/C(=O)/C=C/c2ccc(O)c(OC)c2)ccc1[O-].[Na+]`, the Activity in test [1] came to 30%. For the molecule `CCc1ccc(/C=C/C(=O)/C=C(O)/C=C/c2ccc(OC)c(O)c2OC)c(CC)c1O`, in test [2], the inhibition at 10 µM amounted to 45%.

On to `CC(=O)O[C@H]1C(=O)[C@@]2(C)[C@H]([C@H](OC(=O)c3ccccc3)[C@]3(O)C[C@H](OC(=O)[C@H](O)[C@@H](NC(=O)c4ccccc4)c4ccccc4)C(C)=C1C3(C)C)[C@]1(OC(C)=O)CO[C@@H]1C[C@@H]2O` [PACLITAXEL], for which the inhibition at 0.001 µM in test [3] was 97%.
